Experimental data reported in patent publication US10822338B2, “Substituted aminoquinazoline compounds as A2A antagonist” (Merck Sharp & Dohme Corp., priority 2015, dated 2020).

Target: human A2A receptor (Homo sapiens (Human), UniProt P29274)
Test: A2A competition binding assay using Scintillation Proximity technology
Conditions: 0.25 μg of membranes from HEK293 cells expressing the human A2a receptor per well; 0.5 nM tritiated radioligand; Cheng-Prusoff

Chain of human A2A receptor (P29274 whole entry): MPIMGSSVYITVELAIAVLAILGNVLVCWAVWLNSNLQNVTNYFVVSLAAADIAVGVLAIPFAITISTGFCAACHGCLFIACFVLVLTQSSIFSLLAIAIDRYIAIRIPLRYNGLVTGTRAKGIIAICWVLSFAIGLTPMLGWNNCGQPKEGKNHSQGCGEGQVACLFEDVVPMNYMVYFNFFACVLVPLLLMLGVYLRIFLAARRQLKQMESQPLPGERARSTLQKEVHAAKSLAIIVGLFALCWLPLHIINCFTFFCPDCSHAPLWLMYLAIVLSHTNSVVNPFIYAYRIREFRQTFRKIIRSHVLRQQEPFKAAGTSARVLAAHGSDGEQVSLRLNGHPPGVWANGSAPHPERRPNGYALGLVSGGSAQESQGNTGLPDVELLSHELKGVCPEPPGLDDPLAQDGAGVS

Compound | Ki
COc1cccc2c1nc(N)n1nc(C3CCCCN(CC(F)(F)F)C3)nc21 (single isomer, unassigned) [Example 32B, 7-methoxy-2-(1-(2,22-trifluoroethyl)azepan-3-yl)-[1,2,4]triazolo[1,5-c]quinazolin-5-amine] | 5.9 nM
COc1cccc2c1nc(N)n1nc([C@@H]3CCCN(C4CCC(F)(F)CC4)C3)nc21 [Example 49, 2-((3R)-1-(4,4-difluorocyclohexyl)piperidin-3-yl)-7-methoxy[1,2,4]triazolo [1,5-c]quinazolin-5-amine] | 5.9 nM
COc1cccc2c1nc(N)n1nc([C@@H]3CCCN(CC(C)(C)F)C3)nc21 [Example 43, (R)-2-(1-(2-fluoro-2-methylpropyl)piperidin-3-yl)-7-methoxy-[1,2,4]triazolo[1,5-c]triazolo[1,5-c]quinazolin-5-amine] | 0.6 nM
